Source: patent US10654802B2, “Indoline derivatives and method for using and producing the same” (ARIZONA BOARD OF REGENTS ON BEHALF OF THE UNIVERSITY OF …, priority 2016, dated 2020)

Molecular target: T1, Nox4 (Homo sapiens, UniProt Q9NPH5)
T1 construct: expressed in transfected cells
T1 sequence (Q9NPH5 1-578): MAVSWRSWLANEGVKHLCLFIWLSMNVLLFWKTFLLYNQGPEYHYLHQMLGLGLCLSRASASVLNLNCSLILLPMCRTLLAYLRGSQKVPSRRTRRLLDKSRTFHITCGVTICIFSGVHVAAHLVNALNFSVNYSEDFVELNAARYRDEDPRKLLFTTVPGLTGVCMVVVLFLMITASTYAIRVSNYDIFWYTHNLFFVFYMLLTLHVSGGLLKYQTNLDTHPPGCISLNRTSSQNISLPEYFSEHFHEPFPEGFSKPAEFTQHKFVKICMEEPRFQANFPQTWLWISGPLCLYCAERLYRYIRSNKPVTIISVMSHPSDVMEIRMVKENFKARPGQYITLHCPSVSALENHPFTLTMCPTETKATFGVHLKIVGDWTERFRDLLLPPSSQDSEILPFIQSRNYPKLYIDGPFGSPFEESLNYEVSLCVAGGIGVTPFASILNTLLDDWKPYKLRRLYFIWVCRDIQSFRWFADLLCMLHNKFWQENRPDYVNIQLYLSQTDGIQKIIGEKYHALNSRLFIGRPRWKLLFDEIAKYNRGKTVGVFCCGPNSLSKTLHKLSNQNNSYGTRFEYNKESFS
T1 sequence (P13498 1-195 partner): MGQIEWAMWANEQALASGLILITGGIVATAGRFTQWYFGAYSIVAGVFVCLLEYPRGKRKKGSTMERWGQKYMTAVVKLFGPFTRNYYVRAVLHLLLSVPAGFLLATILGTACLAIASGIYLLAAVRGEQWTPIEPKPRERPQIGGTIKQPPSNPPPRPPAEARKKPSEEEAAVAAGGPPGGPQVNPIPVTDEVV
Assay: Inhibition of Nox4-dependent H2O2 production in HEK/Nox4 cells, Amplex Red assay
Assay type: cell-based
Conditions: 1 h, HEK/Nox4 cells, DMSO vehicle = 1.000, n = 3-10, read-out: H2O2 production relative to vehicle control, Mean; for remaining activity at 1 µM: 1 μM final concentration; for remaining activity at 5 µM: 5 μM final concentration; for remaining activity at 10 µM: 10 μM final concentration
Experimental: A high-throughput screening (HTS) assay was established for Nox4 inhibition, utilizing HEK293 cells that stably over-express Nox4 (HEK/Nox4 cells), which generate high levels of H2O2(Cheng G et al, Gene: 2001, p. 131-140). Over 30,000 compounds have been screened and medicinal chemistry efforts have led to the synthesis of numerous analogs and the identification of a chemically distinct series of selective Nox4 inhibitors. […] IC-50 was evaluated for UANox048 (FIG. 1B).
HEK cells stably transfected to overexpress Nox4 were treated with varying concentrations of test compounds, DPI (all-Nox inhibitor positive control), or DMSO (vehicle control) and incubated for 1 h (FIG. 1). (FIG. 1A) H2O2 presence was evaluated by Amplex Red assay. […] Values represent means±SEM; n=4. P values were calculated by student's two-tailed t test. *p<0.05, **p<0.01, *** p<0.001.

Question: Which remaining activity at 1 µM does the source give for CCN(CC)S(=O)(=O)NCCN1CCc2ccccc21 [UANOX001, N—(N,N-diethylaminosulfonyl)-2-(indolin-1-yl)ethan-1-amine] here?
Answer: The remaining activity at 1 µM was 99.5%.

Question: And the remaining activity at 5 µM?
Answer: Its remaining activity at 5 µM is 106%.

Question: What about the remaining activity at 10 µM of the same molecule?
Answer: The remaining activity at 10 µM was 103%.

Question: CCN(CC)C(=O)NCCN1CCc2ccccc21 [UANOX002, 1,1-diethyl-3-(2-(indolin-1-yl)ethyl)urea] was tested. Which remaining activity at 1 µM did it give?
Answer: The remaining activity at 1 µM was 98.6%.

Question: What about the remaining activity at 5 µM of the same molecule?
Answer: The remaining activity at 5 µM was 106%.

Question: What about the remaining activity at 10 µM of the same molecule?
Answer: The remaining activity at 10 µM was 101%.

Question: For CN(C)S(=O)(=O)NCCN1CCc2ccccc21 [UANOX003, N—(N,N-dimethylaminosulfonyl)-2-(indolin-1-yl)ethan-1-amine], which remaining activity at 1 µM is on record?
Answer: The remaining activity at 1 µM was 101%.

Question: What about the remaining activity at 5 µM of the same molecule?
Answer: Its remaining activity at 5 µM is 103%.

Question: What about the remaining activity at 10 µM of the same molecule?
Answer: The remaining activity at 10 µM was 103%.

Question: Which remaining activity at 1 µM does the source give for O=S(=O)(NCCN1CCc2ccccc21)N1CCCC1 [UANOX004, N-(2-(indolin-1-yl)ethyl)pyrrolidine-1-sulfonamide] here?
Answer: The remaining activity at 1 µM was 99.4%.

Question: What about the remaining activity at 5 µM of the same molecule?
Answer: The remaining activity at 5 µM was 101%.

Question: And the remaining activity at 10 µM?
Answer: The remaining activity at 10 µM was 88.2%.

Question: Which remaining activity at 1 µM does the source give for CCN(CC)C(=O)NCC(C)N1CCc2ccccc21 (stereo not drawn) [UANOX006, 1,1-diethyl-3-(2-(indolin-1-yl)propyl)urea] here?
Answer: Its remaining activity at 1 µM is 82.2%.

Question: And the remaining activity at 5 µM?
Answer: Its remaining activity at 5 µM is 82.5%.

Question: What about the remaining activity at 10 µM of the same molecule?
Answer: The remaining activity at 10 µM was 74.1%.

Question: What does the source list for CC(CNS(=O)(=O)N(C)C)N1CCc2ccccc21 (stereo not drawn) [UANOX007, N—(N,N-dimethylaminosulfonyl)-2-(indolin-1-yl)propane-1-amine]?
Answer: remaining activity at 1 µM: 103%; remaining activity at 5 µM: 91.6%; remaining activity at 10 µM: 90.8%

Question: Which remaining activity at 1 µM does the source give for CC(CNS(=O)(=O)N1CCCC1)N1CCc2ccccc21 (stereo not drawn) [UANOX008, N-(2-(indolin-1-yl)propyl)pyrrolidine-1-sulfonamide] here?
Answer: Its remaining activity at 1 µM is 98.4%.

Question: What about the remaining activity at 5 µM of the same molecule?
Answer: Its remaining activity at 5 µM is 77.9%.

Question: And the remaining activity at 10 µM?
Answer: Its remaining activity at 10 µM is 67.8%.

Question: Which results are given for CN1CCN(C(=O)NCCN2CCc3ccccc32)CC1 [UANOX011, N-(2-(indolin-1-yl)ethyl)-4-methylpiperazine-1-carboxamide]?
Answer: remaining activity at 1 µM: 98%; remaining activity at 5 µM: 97.9%; remaining activity at 10 µM: 95.6%

Question: With O=S(=O)(NCCN1CCc2ccccc21)N1CCOCC1 [UANOX012, N-(2-(indolin-1-yl)ethyl)morpholine-4-sulfonamide] as the molecule, how does the remaining activity at 1 µM read?
Answer: The remaining activity at 1 µM was 96%.

Question: And the remaining activity at 5 µM?
Answer: Its remaining activity at 5 µM is 95%.

Question: What about the remaining activity at 10 µM of the same molecule?
Answer: The remaining activity at 10 µM was 85.7%.

Question: For O=S(=O)(NCCN1CCc2ccccc21)N1CCCCC1 [UANOX013, N-(2-(indolin-1-yl)ethyl)piperidine-1-sulfonamide], which remaining activity at 1 µM is on record?
Answer: Its remaining activity at 1 µM is 101%.

Question: What about the remaining activity at 5 µM of the same molecule?
Answer: Its remaining activity at 5 µM is 92.1%.

Question: And the remaining activity at 10 µM?
Answer: Its remaining activity at 10 µM is 88.1%.

Question: How did the remaining activity at 1 µM turn out when c1ccc2c(c1)CCN2CCN1CCCCC1 [UANOX018, 1-(2-(piperidin-1-yl)ethyl)indoline] was run?
Answer: The remaining activity at 1 µM was 110%.

Question: And the remaining activity at 5 µM?
Answer: The remaining activity at 5 µM was 103%.

Question: And the remaining activity at 10 µM?
Answer: Its remaining activity at 10 µM is 100%.

Question: For CC(CNC(=O)N1CCN(C)CC1)N1CCc2ccccc21 (stereo not drawn) [UANOX019, N-(2-(indolin-1-yl)propyl)-4-methylpiperazine-1-carboxamide], which remaining activity at 1 µM is on record?
Answer: The remaining activity at 1 µM was 91.5%.

Question: What about the remaining activity at 5 µM of the same molecule?
Answer: The remaining activity at 5 µM was 81.4%.

Question: And the remaining activity at 10 µM?
Answer: The remaining activity at 10 µM was 74.1%.

Question: Which remaining activity at 1 µM does the source give for CC(CNC(=O)N1CCCC1)N1CCc2ccccc21 (stereo not drawn) [UANOX020, N-(2-(indolin-1-yl)propyl)pyrrolidine-1-carboxamide] here?
Answer: The remaining activity at 1 µM was 73.7%.

Question: And the remaining activity at 5 µM?
Answer: The remaining activity at 5 µM was 87%.

Question: And the remaining activity at 10 µM?
Answer: Its remaining activity at 10 µM is 86.6%.

Question: Which results are given for O=C(NCCN1CCc2ccccc21)N1CCCC1 [UANOX021, N-(2-(indolin-1-yl)ethyl)pyrrolidine-1-carboxamide]?
Answer: remaining activity at 1 µM: 74.2%; remaining activity at 5 µM: 87.6%; remaining activity at 10 µM: 79.1%

Question: Which remaining activity at 1 µM does the source give for O=C(CCN1CCN(c2ncccn2)CC1)N1CCc2ccccc21 [UANOX022, 1-(indolin-1-yl)-3-(4-(pyrimidin-2-yl)piperazin-1-yl)propan-1-one] here?
Answer: The remaining activity at 1 µM was 111%.

Question: And the remaining activity at 5 µM?
Answer: Its remaining activity at 5 µM is 107%.

Question: And the remaining activity at 10 µM?
Answer: Its remaining activity at 10 µM is 110%.
